Measured values: patent US20060069152A1, “Crystalline mycophenolate sodium” (priority 2004, published 2006)
Where two headings read alike, the source gives them in different places.

Key:
[1] = Hygroscopicity: crystal forms exposed to different levels of humidity for one week, then analysed by TGA and XRD; assay type: physicochemical; details: for LOD(%): one week, TGA
Method: The hygroscopicity of monosodium mycophenolate crystal forms M1, M2, M3 and disodium mycophenolate crystal forms D1 and D1±D2 were also investigated. Form M1, M2, M3, D1 and D1±D2 were exposed to different level of humidity for one week and after equilibrium they were analysed by TGA and XRD for water content and crystal structure. Table 5 summarizes the results:
(§1) ARL X-ray powder diffractometer model X′TRA-030, Peltier detector, round standard aluminum sample holder with round zero background quartz plate was used. Scanning parameters: Range: 2-40 deg. 2 θ, continuous Scan, Rate: 3 deg./min. The accuracy of peak positions is defined as ±/−0.2 degrees due to experimental differences like instrumentations, sample preparations etc.
• TGA/SDTA 851^e, Mettler Toledo, Sample weight 7-15 mg. • Heating rate: 10° C./min., In N2 stream: flow rate=50 ml/min • Scan range: 30-250° C. Microscope
200 mg of each of the following samples: crystal Form M2, crystal Form M3 and crystal Form D1 were put at room temperature into a hygroscopicity chamber containing 100% relative humidity for one week. After one week they were measured again by XRD to determine their crystal forms.

[2] = Crystal form transformation by heating in an oven at atmospheric pressure, XRD before and after; assay type: physicochemical; details: for Crystal form after heating (XRD): 30 min., atmospheric pressure
Method: Representatives of all monosodium and disodium mycophenolate crystal forms, M1, M2, M1±M3, D1 and D1±D2 were heated in an oven at atmospheric pressure at 130° C. and 170° C. for 30 minutes. The samples were analyzed by XRD before and after heating.
as §1
200 mg of a mixture of Forms M1±M3 as identified by XRD, was put into an oven in a glass weighing bottle at 170° C. for 0.5 h. Then it was put into a desiccator and allowed to cool to room temperature. […] Transformation of M2 to M1, M3 to M1 and D1 to D2 by water vapors absorption

With COc1c(C)c2c(c([O-])c1C/C=C(\C)CCC(=O)[O-])C(=O)OC2.[Na+].[Na+] [D1 + D2, disodium mycophenolate] the “LOD(%)” value ([1]; 20% RH) was 10.2%, the “LOD(%)” value ([1]; 40% RH) was 10.3% and the “LOD(%)” value ([1]; 80% RH) was 16.9%. For the same molecule, the “LOD(%)” value ([1]; 100% RH) was 42.1%.
In the case of COc1c(C)c2c(c([O-])c1C/C=C(\C)CCC(=O)[O-])C(=O)OC2.[Na+].[Na+] [Form D1, disodium mycophenolate], the “relative stability of the form at high temperature” value [2] is reported as “the most stable forms at high temperature”, the “LOD(%)” value ([1]; 40% RH, listed as D1) is reported as 2.17% and the “LOD(%)” value ([1]; 60% RH) is reported as 11.64%. For the same molecule, the “LOD(%)” value ([1]; 80% RH, listed as D1) was 17.20% and the “LOD(%)” value ([1]; 100% RH, listed as D1) was 31.87%.
In the case of COc1c(C)c2c(c([O-])c1C/C=C(\C)CCC(=O)[O-])C(=O)OC2.[Na+].[Na+] [Form D2, disodium mycophenolate], the “relative stability of the form at high relative humidity” value ([1]; room temperature, high relative humidity) is reported as “the most stable form at room temperature, at high relative humidity”.
With COc1c(C)c2c(c(O)c1C/C=C(\C)CCC(=O)O)C(=O)OC2 [Form M1, mycophenolate sodium] the “relative stability of the form at high relative humidity” value [1] was “the most stable form at room temperature, at high relative humidity”.
For COc1c(C)c2c(c(O)c1C/C=C(\C)CCC(=O)O)C(=O)OC2 [Form M2, mycophenolate sodium], the “relative stability of the form at high temperature” value ([2]; heating at 130° C. and 170° C.) was “the most stable forms at high temperature”.
With COc1c(C)c2c(c(O)c1C/C=C(\C)CCC(=O)[O-])C(=O)OC2.[Na+] [M1 + M3, mycophenolate sodium] the “Crystal form after heating (XRD)” value ([2]; 130° C.) was “M3 > Ml” and the “Crystal form after heating (XRD)” value ([2]; 170° C.) was “Form M2”.
For COc1c(C)c2c(c([O-])c1C/C=C(\C)CCC(=O)[O-])C(=O)OC2.[Na+].[Na+] [disodium mycophenolate], the equilibrium water content ([1]; after humidity exposure) was “about 17%”.
